Experimental data published in PubChem BioAssay (NCI).
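Exposure lasted 48 hours, with cells grown in 96-well plates and compounds tested at five concentrations. TGI: total growth inhibition.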

Key:
Assay in all cases: NCI-60 cell line screen, 48 h
UACC-257 melanoma = system: UACC-257 melanoma
HCT-116 colon = system: HCT-116 colon
SK-MEL-28 melanoma = system: SK-MEL-28 melanoma
TK-10 renal = system: TK-10 renal
KM20L2 colon = system: KM20L2 colon
RPMI-8226 leukemia = system: RPMI-8226 leukemia
SK-OV-3 ovarian = system: SK-OV-3 ovarian
SK-MEL-2 melanoma = system: SK-MEL-2 melanoma
HCC-2998 colon = system: HCC-2998 colon
OVCAR-3 ovarian = system: OVCAR-3 ovarian
HOP-92 NSCLC = system: HOP-92 NSCLC
MALME-3M melanoma = system: MALME-3M melanoma
SF-539 CNS = system: SF-539 CNS
NCI-H226 lung = system: NCI-H226 lung
K-562 leukemia = system: K-562 leukemia
XF 498 CNS = system: XF 498 CNS
SF-295 CNS = system: SF-295 CNS
DLD-1 colon = system: DLD-1 colon
M14 melanoma = system: M14 melanoma
HCT-15 colon = system: HCT-15 colon
HT29 colon = system: HT29 colon
COLO 205 colon = system: COLO 205 colon
MOLT-4 leukemia = system: MOLT-4 leukemia
A549 NSCLC = system: A549 NSCLC
OVCAR-4 ovarian = system: OVCAR-4 ovarian
NCI-H460 lung = system: NCI-H460 lung
786-0 renal = system: 786-0 renal
DMS 273 small cell lung = system: DMS 273 small cell lung
NCI-H522 lung = system: NCI-H522 lung
HOP-62 NSCLC = system: HOP-62 NSCLC
SNB-78 CNS = system: SNB-78 CNS
SN12C renal = system: SN12C renal
RXF 393 renal = system: RXF 393 renal
EKVX NSCLC = system: EKVX NSCLC
SF-268 CNS = system: SF-268 CNS
UACC-62 melanoma = system: UACC-62 melanoma
M19-MEL melanoma = system: M19-MEL melanoma
LXFL 529 NSCLC = system: LXFL 529 NSCLC
UO-31 renal = system: UO-31 renal
U251 CNS = system: U251 CNS
IGROV1 ovarian = system: IGROV1 ovarian
SR leukemia = system: SR leukemia
NCI-H23 lung = system: NCI-H23 lung
SW-620 colon = system: SW-620 colon
HL-60(TB) leukemia = system: HL-60(TB) leukemia
KM12 colon = system: KM12 colon
LOX IMVI melanoma = system: LOX IMVI melanoma
A498 renal = system: A498 renal
DMS 114 small cell lung = system: DMS 114 small cell lung
OVCAR-8 ovarian = system: OVCAR-8 ovarian
HOP-18 NSCLC = system: HOP-18 NSCLC
SNB-19 CNS = system: SNB-19 CNS
ACHN renal = system: ACHN renal
CCRF-CEM leukemia = system: CCRF-CEM leukemia
SNB-75 CNS = system: SNB-75 CNS
OVCAR-5 ovarian = system: OVCAR-5 ovarian
MDA-MB-435 = system: MDA-MB-435
MCF7 breast = system: MCF7 breast
SK-MEL-5 melanoma = system: SK-MEL-5 melanoma
T-47D breast = system: T-47D breast
CAKI-1 renal = system: CAKI-1 renal
BT-549 breast = system: BT-549 breast
MDA-N = system: MDA-N
DU-145 prostate = system: DU-145 prostate
HS 578T breast = system: HS 578T breast
NCI/ADR-RES ovarian = system: NCI/ADR-RES ovarian
PC-3 prostate = system: PC-3 prostate
MDA-MB-231 breast = system: MDA-MB-231 breast

O=c1oc2cc(O)ccc2c2[nH]c3cc(O)ccc3c12
TGI (UACC-257 melanoma): > 100 µM
TGI (HCT-116 colon): 31.5 µM
TGI (SK-MEL-28 melanoma): > 100 µM
TGI (TK-10 renal): > 100 µM
TGI (KM20L2 colon): > 100 µM
TGI (RPMI-8226 leukemia): > 100 µM
TGI (SK-OV-3 ovarian): 63.1 µM
TGI (SK-MEL-2 melanoma): 50.2 µM
TGI (HCC-2998 colon): 57 µM
TGI (OVCAR-3 ovarian): 56.5 µM
TGI (HOP-92 NSCLC): 95.4 µM
TGI (MALME-3M melanoma): > 100 µM
TGI (SF-539 CNS): 49.9 µM
TGI (NCI-H226 lung): 78 µM
TGI (K-562 leukemia): > 100 µM
TGI (XF 498 CNS): 73.6 µM
TGI (SF-295 CNS): > 100 µM
TGI (DLD-1 colon): 74.8 µM
TGI (M14 melanoma): > 100 µM
TGI (HCT-15 colon): 81.8 µM
TGI (HT29 colon): > 100 µM
TGI (COLO 205 colon): 74.9 µM
TGI (MOLT-4 leukemia): > 100 µM
TGI (A549 NSCLC): > 100 µM
TGI (OVCAR-4 ovarian): 99.6 µM
TGI (NCI-H460 lung): 96.4 µM
TGI (786-0 renal): > 100 µM
TGI (DMS 273 small cell lung): 88.6 µM
TGI (NCI-H522 lung): 32.9 µM
TGI (HOP-62 NSCLC): 59.6 µM
TGI (SNB-78 CNS): > 100 µM
TGI (SN12C renal): > 100 µM
TGI (RXF 393 renal): 47.5 µM
TGI (EKVX NSCLC): 90.1 µM
TGI (SF-268 CNS): 64.8 µM
TGI (UACC-62 melanoma): 31.7 µM
TGI (M19-MEL melanoma): 98.7 µM
TGI (LXFL 529 NSCLC): > 100 µM
TGI (UO-31 renal): 97.5 µM
TGI (U251 CNS): > 100 µM
TGI (IGROV1 ovarian): 57.9 µM
TGI (SR leukemia): > 100 µM
TGI (NCI-H23 lung): 51.5 µM
TGI (SW-620 colon): > 100 µM
TGI (HL-60(TB) leukemia): > 100 µM
TGI (KM12 colon): 53.1 µM
TGI (LOX IMVI melanoma): 33.8 µM
TGI (A498 renal): > 100 µM
TGI (DMS 114 small cell lung): 53.8 µM
TGI (OVCAR-8 ovarian): 78.7 µM
TGI (HOP-18 NSCLC): > 100 µM
TGI (SNB-19 CNS): > 100 µM
TGI (ACHN renal): 62.5 µM
TGI (CCRF-CEM leukemia): > 100 µM
TGI (SNB-75 CNS): 46.2 µM

Cc1cccc(C(C)(C)C)c1NC(=O)C(C#N)C1=C(Cl)C(=O)c2ccccc2C1=O (stereo unspecified)
TGI (UACC-257 melanoma): 30.3 µM
TGI (OVCAR-5 ovarian): 32 µM
TGI (HCT-116 colon): 27.2 µM
TGI (SK-MEL-28 melanoma): 31.5 µM
TGI (TK-10 renal): 33.3 µM
TGI (MDA-MB-435): 30.6 µM
TGI (KM20L2 colon): 38.4 µM
TGI (RPMI-8226 leukemia): 49.2 µM
TGI (SK-OV-3 ovarian): 40.2 µM
TGI (MCF7 breast): 32.9 µM
TGI (SK-MEL-2 melanoma): 30.7 µM
TGI (HCC-2998 colon): 29.7 µM
TGI (OVCAR-3 ovarian): 31.4 µM
TGI (SK-MEL-5 melanoma): 31.5 µM
TGI (HOP-92 NSCLC): 9.68 µM
TGI (T-47D breast): 26.1 µM
TGI (MALME-3M melanoma): 31.1 µM
TGI (SF-539 CNS): 32.5 µM
TGI (CAKI-1 renal): 31.5 µM
TGI (NCI-H226 lung): 21.2 µM
TGI (K-562 leukemia): 10.2 µM
TGI (XF 498 CNS): 29.4 µM
TGI (SF-295 CNS): 30.8 µM
TGI (DLD-1 colon): 33.4 µM
TGI (M14 melanoma): 32.5 µM
TGI (HT29 colon): 40.7 µM
TGI (COLO 205 colon): 35 µM
TGI (MOLT-4 leukemia): 22.6 µM
TGI (A549 NSCLC): 46.7 µM
TGI (OVCAR-4 ovarian): 28.9 µM
TGI (BT-549 breast): 27.5 µM
TGI (NCI-H460 lung): 38.5 µM
TGI (786-0 renal): 30 µM
TGI (DMS 273 small cell lung): 36.2 µM
TGI (MDA-N): 27.4 µM
TGI (DU-145 prostate): 36.5 µM
TGI (NCI-H522 lung): 26.9 µM
TGI (HOP-62 NSCLC): 32.2 µM
TGI (SNB-78 CNS): 33.1 µM
TGI (SN12C renal): 31.5 µM
TGI (RXF 393 renal): 30.6 µM
TGI (EKVX NSCLC): 17.1 µM
TGI (SF-268 CNS): 31.2 µM
TGI (UACC-62 melanoma): 32.5 µM
TGI (LXFL 529 NSCLC): 29.2 µM
TGI (HS 578T breast): 52.5 µM
TGI (UO-31 renal): 27.9 µM
TGI (U251 CNS): 31.3 µM
TGI (NCI/ADR-RES ovarian): 37.7 µM
TGI (IGROV1 ovarian): 33 µM
TGI (PC-3 prostate): 26.3 µM
TGI (SR leukemia): > 100 µM
TGI (NCI-H23 lung): 30.2 µM
TGI (SW-620 colon): 36.3 µM
TGI (MDA-MB-231 breast): 27.3 µM
TGI (HL-60(TB) leukemia): 26 µM
TGI (KM12 colon): 31.3 µM
TGI (LOX IMVI melanoma): 30.7 µM
TGI (A498 renal): 44.4 µM
TGI (DMS 114 small cell lung): 38.3 µM
TGI (OVCAR-8 ovarian): 37.4 µM
TGI (HOP-18 NSCLC): 24.3 µM
TGI (SNB-19 CNS): 39.1 µM
TGI (ACHN renal): 27.6 µM
TGI (CCRF-CEM leukemia): 10.7 µM
TGI (SNB-75 CNS): 27.6 µM

COC(=O)C(=O)C(CC(=O)Nc1cc(Cl)ccc1Cl)C(=O)OC (stereo unspecified)
TGI (UACC-257 melanoma): > 100 µM
TGI (OVCAR-5 ovarian): > 100 µM
TGI (HCT-116 colon): > 100 µM
TGI (SK-MEL-28 melanoma): > 100 µM
TGI (TK-10 renal): > 100 µM
TGI (KM20L2 colon): > 100 µM
TGI (RPMI-8226 leukemia): > 100 µM
TGI (SK-OV-3 ovarian): > 100 µM
TGI (SK-MEL-2 melanoma): > 100 µM
TGI (HCC-2998 colon): > 100 µM
TGI (OVCAR-3 ovarian): > 100 µM
TGI (SK-MEL-5 melanoma): > 100 µM
TGI (HOP-92 NSCLC): > 100 µM
TGI (MALME-3M melanoma): > 100 µM
TGI (SF-539 CNS): > 100 µM
TGI (CAKI-1 renal): > 100 µM
TGI (NCI-H226 lung): > 100 µM
TGI (K-562 leukemia): > 100 µM
TGI (SF-295 CNS): > 100 µM
TGI (M14 melanoma): > 100 µM
TGI (HCT-15 colon): > 100 µM
TGI (HT29 colon): > 100 µM
TGI (COLO 205 colon): > 100 µM
TGI (MOLT-4 leukemia): > 100 µM
TGI (A549 NSCLC): > 100 µM
TGI (OVCAR-4 ovarian): > 100 µM
TGI (NCI-H460 lung): > 100 µM
TGI (786-0 renal): > 100 µM
TGI (DMS 273 small cell lung): > 100 µM
TGI (NCI-H522 lung): > 100 µM
TGI (HOP-62 NSCLC): > 100 µM
TGI (SNB-78 CNS): > 100 µM
TGI (SN12C renal): > 100 µM
TGI (RXF 393 renal): > 100 µM
TGI (EKVX NSCLC): > 100 µM
TGI (SF-268 CNS): > 100 µM
TGI (UACC-62 melanoma): > 100 µM
TGI (LXFL 529 NSCLC): > 100 µM
TGI (UO-31 renal): > 100 µM
TGI (U251 CNS): > 100 µM
TGI (IGROV1 ovarian): > 100 µM
TGI (SR leukemia): > 100 µM
TGI (NCI-H23 lung): > 100 µM
TGI (SW-620 colon): > 100 µM
TGI (HL-60(TB) leukemia): > 100 µM
TGI (KM12 colon): > 100 µM
TGI (LOX IMVI melanoma): > 100 µM
TGI (A498 renal): > 100 µM
TGI (DMS 114 small cell lung): > 100 µM
TGI (OVCAR-8 ovarian): > 100 µM
TGI (HOP-18 NSCLC): > 100 µM
TGI (SNB-19 CNS): > 100 µM
TGI (ACHN renal): > 100 µM
TGI (CCRF-CEM leukemia): > 100 µM
TGI (SNB-75 CNS): > 100 µM
